Reference: ChEMBL document CHEMBL4808180, “Identification of 2,2-Dimethylbutanoic Acid (HST5040), a Clinical Development Candidate for the Treatment of Propionic Acidemia and Methylmalonic Acidemia” (J Med Chem, 2021)
pEC50: −log10 of the molar value.

Experiments:
[1] = Reduction of propionyl-CoA in human hepatocytes derived from propionic acidemia patient at 100 uM pretreated for 30 mins followed by 13C-isoleucine addition and measured after 1 hr by MS/MS analysis relative to control; format: functional, Hepatocyte; parameters: scale not given: the % may be the effect or the level left; conditions: time 90 min, 1.5 h
[2] = Reduction of propionyl-CoA in human hepatocytes derived from propionic acidemia patient pretreated for 30 mins followed by 13C-isoleucine addition and measured after 1 hr by MS/MS analysis; format: functional, cell-based; conditions: hepatocyte

Structure (SMILES)	Activity [1] [%]	pEC50 [2]
CCCC(C)C(=O)O (stereo unspecified)	77	4.90
CC(CCO)C(=O)O (stereo unspecified)	66	< 4.00
CCC(CC)C(=O)O	67	4.47
CCCC(CCC)C(=O)OC	63	< 4.00
O=C(O)C1CCCC1	42	4.91
O=C(O)C1CCC1	49	4.26
O=C(O)CCCC(F)(F)F	65	5.00
CC1(CC(=O)O)CC1	65	4.81
CCC(C)(C)C(N)=O	57	< 4.00
CSCCCC(=O)O	78	4.72
CCCC(CC)C(=O)O (stereo unspecified)	98	5.91
COCC(C)(C)C(=O)O	75	5.57
CNCCC(=O)O	64	5.18
CCCC(C)(C)C(=O)O	96	6.12
CCC(C)(C)C(=O)OC	91	5.76
O=C(O)C1CC1 [CYCLOPROPANE CARBOXYLIC ACID]	66	4.63
CC(C)(C)C(=O)O [PIVALATE]	77	5.26
CC(C)(C)CC(=O)O [T-BUTYLACETIC ACID]	97	6.04
